In PMC5529566, “The cryo-EM structure of gastric H^+,K^+-ATPase with bound BYK99, a high-affinity member of K^+-competitive, imidazo[1,2-a]pyridine inhibitors” (Scientific Reports, 2017):

How the values were obtained:
H^+,K^+-ATPase N138L = H^+,K^+-ATPase N138L (Sus scrofa, UniProt P19156, N139L); experiment: ATPase assay, N138L mutant
H^+,K^+-ATPase D136L = H^+,K^+-ATPase D136L (Sus scrofa, UniProt P19156, D137L); experiment: ATPase assay, D136L mutant
H^+,K^+-ATPase L800F = H^+,K^+-ATPase L800F (Sus scrofa, UniProt P19156, L801F); experiment: ATPase assay, L800F mutant
H^+,K^+-ATPase L796F = H^+,K^+-ATPase L796F (Sus scrofa, UniProt P19156, L797F); experiment: ATPase assay, L796F mutant
H^+,K^+-ATPase A335V = H^+,K^+-ATPase A335V (Sus scrofa, UniProt P19156, A336V); experiment: ATPase assay, A335V mutant
H^+,K^+-ATPase F332I = H^+,K^+-ATPase F332I (Sus scrofa, UniProt P19156, F333I); experiment: ATPase assay, F332I mutant
H^+,K^+-ATPase Q127A = H^+,K^+-ATPase Q127A (Sus scrofa, UniProt P19156, Q128A); experiment: ATPase assay, Q127A mutant
H^+,K^+-ATPase L139A = H^+,K^+-ATPase L139A (Sus scrofa, UniProt P19156, L140A); experiment: ATPase assay, L139A mutant
H^+,K^+-ATPase D137L = H^+,K^+-ATPase D137L (Sus scrofa, UniProt P19156, D138L); experiment: ATPase assay, D137L mutant
H^+,K^+-ATPase L141I = H^+,K^+-ATPase L141I (Sus scrofa, UniProt P19156, L142I); experiment: ATPase assay, L141I mutant
H^+,K^+-ATPase D137A = H^+,K^+-ATPase D137A (Sus scrofa, UniProt P19156, D138A); experiment: ATPase assay, D137A mutant
H^+,K^+-ATPase = test system: H^+,K^+-ATPase; parameters: method as in doi:10.1016/j.tetlet.2006.02.156; settings: cited from earlier work
H^+,K^+-ATPase N138D = H^+,K^+-ATPase N138D (Sus scrofa, UniProt P19156, N139D); experiment: ATPase assay, N138D mutant
H^+,K^+-ATPase N138I = H^+,K^+-ATPase N138I (Sus scrofa, UniProt P19156, N139I); experiment: ATPase assay, N138I mutant
H^+,K^+-ATPase WT = target: T1, H^+,K^+-ATPase WT (Sus scrofa, UniProt P19156); experiment: K^+-competitive inhibition of H^+,K^+-ATPase activity, 96-well ATPase assay, wild-type; type: biochemical, pig; settings: WT
T1 construct: made in house; host or cells: HEK293S GnT1- cells (BacMam baculovirus transduction); permeabilised membrane fractions

H^+,K^+-ATPase V331F = H^+,K^+-ATPase V331F (Sus scrofa, UniProt P19156, V332F); experiment: ATPase assay, V331F mutant
H^+,K^+-ATPase A125F = H^+,K^+-ATPase A125F (Sus scrofa, UniProt P19156, A126F); experiment: ATPase assay, A125F mutant
H^+,K^+-ATPase I126A = target: T2, H^+,K^+-ATPase I126A (Sus scrofa, UniProt P19156, I127A); experiment: ATPase assay, I126A mutant; type: biochemical, pig
T2 construct: made in house; host or cells: HEK293S GnT1- cells (BacMam baculovirus transduction); permeabilised membrane fractions

H^+,K^+-ATPase M334F = H^+,K^+-ATPase M334F (Sus scrofa, UniProt P19156, M335F); experiment: ATPase assay, M334F mutant
H^+,K^+-ATPase Q127F = H^+,K^+-ATPase Q127F (Sus scrofa, UniProt P19156, Q128F); experiment: ATPase assay, Q127F mutant
[1] = target: H^+,K^+-ATPase D137N/N138D (Sus scrofa, UniProt P19156, D138N/N139D); experiment: ATPase assay, D137N/N138D mutant
H^+,K^+-ATPase Y799F = H^+,K^+-ATPase Y799F (Sus scrofa, UniProt P19156, Y800F); experiment: ATPase assay, Y799F mutant
H^+,K^+-ATPase Y140A = H^+,K^+-ATPase Y140A (Sus scrofa, UniProt P19156, Y141A); experiment: ATPase assay, Y140A mutant
H^+,K^+-ATPase Y140F = H^+,K^+-ATPase Y140F (Sus scrofa, UniProt P19156, Y141F); experiment: ATPase assay, Y140F mutant
H^+,K^+-ATPase L809F = H^+,K^+-ATPase L809F (Sus scrofa, UniProt P19156, L810F); experiment: ATPase assay, L809F mutant
H^+,K^+-ATPase N138F = H^+,K^+-ATPase N138F (Sus scrofa, UniProt P19156, N139F); experiment: ATPase assay, N138F mutant

H^+,K^+-ATPase V331F, sequence (P19156 whole entry V332F): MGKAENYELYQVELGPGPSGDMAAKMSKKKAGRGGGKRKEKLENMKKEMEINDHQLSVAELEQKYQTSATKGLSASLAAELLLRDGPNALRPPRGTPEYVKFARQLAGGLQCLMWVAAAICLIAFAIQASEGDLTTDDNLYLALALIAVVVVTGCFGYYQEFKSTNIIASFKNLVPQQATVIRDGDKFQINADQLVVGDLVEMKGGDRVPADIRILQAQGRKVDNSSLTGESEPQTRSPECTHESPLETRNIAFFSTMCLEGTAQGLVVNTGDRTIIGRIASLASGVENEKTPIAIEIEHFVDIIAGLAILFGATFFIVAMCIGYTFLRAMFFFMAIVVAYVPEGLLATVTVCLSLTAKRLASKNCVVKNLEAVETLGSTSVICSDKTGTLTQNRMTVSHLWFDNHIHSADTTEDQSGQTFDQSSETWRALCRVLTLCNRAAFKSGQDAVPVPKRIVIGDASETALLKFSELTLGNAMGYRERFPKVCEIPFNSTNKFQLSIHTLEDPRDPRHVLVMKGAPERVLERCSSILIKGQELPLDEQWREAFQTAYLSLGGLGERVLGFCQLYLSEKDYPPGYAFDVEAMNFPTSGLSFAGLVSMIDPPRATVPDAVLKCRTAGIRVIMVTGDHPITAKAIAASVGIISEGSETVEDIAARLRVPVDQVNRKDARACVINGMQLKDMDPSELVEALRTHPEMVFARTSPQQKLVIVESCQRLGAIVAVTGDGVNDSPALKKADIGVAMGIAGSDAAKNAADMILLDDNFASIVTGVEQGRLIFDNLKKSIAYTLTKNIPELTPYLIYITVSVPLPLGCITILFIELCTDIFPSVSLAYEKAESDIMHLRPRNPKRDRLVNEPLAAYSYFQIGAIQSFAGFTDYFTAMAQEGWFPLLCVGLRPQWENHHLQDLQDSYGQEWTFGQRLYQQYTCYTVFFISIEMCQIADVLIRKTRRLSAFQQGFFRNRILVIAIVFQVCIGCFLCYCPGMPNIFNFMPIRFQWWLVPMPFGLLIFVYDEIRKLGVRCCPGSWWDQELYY
H^+,K^+-ATPase V331F, sequence (P18434 whole entry partner): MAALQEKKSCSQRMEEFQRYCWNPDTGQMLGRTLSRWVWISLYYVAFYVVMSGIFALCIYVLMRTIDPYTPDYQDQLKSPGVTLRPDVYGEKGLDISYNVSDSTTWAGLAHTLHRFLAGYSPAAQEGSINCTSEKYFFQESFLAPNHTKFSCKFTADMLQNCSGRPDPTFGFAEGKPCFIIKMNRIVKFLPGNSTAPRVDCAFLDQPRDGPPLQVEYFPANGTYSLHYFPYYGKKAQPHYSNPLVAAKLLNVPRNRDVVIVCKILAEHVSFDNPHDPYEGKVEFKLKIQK
H^+,K^+-ATPase Y799F, sequence (P19156 whole entry Y800F): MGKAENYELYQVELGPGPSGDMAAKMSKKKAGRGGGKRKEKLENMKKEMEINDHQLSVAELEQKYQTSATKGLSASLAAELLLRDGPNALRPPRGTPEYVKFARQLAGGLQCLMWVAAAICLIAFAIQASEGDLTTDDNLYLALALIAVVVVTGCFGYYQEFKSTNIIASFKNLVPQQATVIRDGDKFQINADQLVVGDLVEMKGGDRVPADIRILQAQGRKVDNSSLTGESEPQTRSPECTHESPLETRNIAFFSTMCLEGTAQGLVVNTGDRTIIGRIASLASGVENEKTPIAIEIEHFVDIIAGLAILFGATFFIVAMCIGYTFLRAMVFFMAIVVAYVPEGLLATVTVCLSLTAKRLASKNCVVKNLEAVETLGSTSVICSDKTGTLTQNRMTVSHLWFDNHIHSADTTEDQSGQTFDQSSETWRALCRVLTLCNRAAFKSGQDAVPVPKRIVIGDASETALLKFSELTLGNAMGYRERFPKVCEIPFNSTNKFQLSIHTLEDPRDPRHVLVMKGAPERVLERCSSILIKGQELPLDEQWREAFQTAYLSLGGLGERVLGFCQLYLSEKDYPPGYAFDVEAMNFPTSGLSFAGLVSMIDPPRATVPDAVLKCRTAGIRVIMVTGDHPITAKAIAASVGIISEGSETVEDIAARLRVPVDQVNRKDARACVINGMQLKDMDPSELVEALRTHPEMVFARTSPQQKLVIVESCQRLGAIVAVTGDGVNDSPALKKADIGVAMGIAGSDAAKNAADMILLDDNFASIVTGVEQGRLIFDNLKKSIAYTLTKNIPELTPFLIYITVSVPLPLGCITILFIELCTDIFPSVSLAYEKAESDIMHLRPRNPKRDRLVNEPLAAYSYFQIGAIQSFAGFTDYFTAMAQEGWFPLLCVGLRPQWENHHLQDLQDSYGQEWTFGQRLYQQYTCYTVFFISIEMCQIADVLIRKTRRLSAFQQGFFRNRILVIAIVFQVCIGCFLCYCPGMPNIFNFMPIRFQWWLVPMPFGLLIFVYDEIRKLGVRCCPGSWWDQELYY
H^+,K^+-ATPase Y799F, sequence (P18434 whole entry partner): as the sequence (P18434 whole entry partner) above
H^+,K^+-ATPase F332I, sequence (P19156 whole entry F333I): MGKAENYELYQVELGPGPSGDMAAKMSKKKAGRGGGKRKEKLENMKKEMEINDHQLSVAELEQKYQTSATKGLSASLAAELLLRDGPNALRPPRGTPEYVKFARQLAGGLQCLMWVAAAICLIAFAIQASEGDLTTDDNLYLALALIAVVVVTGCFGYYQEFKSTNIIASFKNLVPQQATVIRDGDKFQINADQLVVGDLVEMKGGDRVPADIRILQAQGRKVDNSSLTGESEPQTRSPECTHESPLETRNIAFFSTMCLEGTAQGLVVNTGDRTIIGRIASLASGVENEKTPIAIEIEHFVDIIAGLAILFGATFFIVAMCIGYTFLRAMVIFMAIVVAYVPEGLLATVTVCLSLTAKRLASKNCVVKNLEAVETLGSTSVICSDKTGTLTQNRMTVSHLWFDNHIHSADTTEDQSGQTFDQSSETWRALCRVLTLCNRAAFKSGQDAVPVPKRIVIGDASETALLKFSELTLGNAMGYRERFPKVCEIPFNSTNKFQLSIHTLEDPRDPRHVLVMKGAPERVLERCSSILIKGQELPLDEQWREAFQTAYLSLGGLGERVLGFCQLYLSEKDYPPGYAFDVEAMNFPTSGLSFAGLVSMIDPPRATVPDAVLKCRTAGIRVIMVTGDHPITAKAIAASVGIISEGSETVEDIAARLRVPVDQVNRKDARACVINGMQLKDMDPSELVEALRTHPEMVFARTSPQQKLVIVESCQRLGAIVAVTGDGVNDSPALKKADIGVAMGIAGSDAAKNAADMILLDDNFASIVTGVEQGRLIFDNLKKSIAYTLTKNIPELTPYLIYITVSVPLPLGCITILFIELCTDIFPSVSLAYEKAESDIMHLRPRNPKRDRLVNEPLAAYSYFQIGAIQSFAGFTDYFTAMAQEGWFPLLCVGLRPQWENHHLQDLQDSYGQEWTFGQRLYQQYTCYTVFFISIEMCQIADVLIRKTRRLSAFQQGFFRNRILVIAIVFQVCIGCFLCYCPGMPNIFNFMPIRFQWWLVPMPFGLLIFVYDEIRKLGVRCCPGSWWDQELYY
H^+,K^+-ATPase F332I, sequence (P18434 whole entry partner): as the sequence (P18434 whole entry partner) above
H^+,K^+-ATPase Q127A, sequence (P19156 whole entry Q128A): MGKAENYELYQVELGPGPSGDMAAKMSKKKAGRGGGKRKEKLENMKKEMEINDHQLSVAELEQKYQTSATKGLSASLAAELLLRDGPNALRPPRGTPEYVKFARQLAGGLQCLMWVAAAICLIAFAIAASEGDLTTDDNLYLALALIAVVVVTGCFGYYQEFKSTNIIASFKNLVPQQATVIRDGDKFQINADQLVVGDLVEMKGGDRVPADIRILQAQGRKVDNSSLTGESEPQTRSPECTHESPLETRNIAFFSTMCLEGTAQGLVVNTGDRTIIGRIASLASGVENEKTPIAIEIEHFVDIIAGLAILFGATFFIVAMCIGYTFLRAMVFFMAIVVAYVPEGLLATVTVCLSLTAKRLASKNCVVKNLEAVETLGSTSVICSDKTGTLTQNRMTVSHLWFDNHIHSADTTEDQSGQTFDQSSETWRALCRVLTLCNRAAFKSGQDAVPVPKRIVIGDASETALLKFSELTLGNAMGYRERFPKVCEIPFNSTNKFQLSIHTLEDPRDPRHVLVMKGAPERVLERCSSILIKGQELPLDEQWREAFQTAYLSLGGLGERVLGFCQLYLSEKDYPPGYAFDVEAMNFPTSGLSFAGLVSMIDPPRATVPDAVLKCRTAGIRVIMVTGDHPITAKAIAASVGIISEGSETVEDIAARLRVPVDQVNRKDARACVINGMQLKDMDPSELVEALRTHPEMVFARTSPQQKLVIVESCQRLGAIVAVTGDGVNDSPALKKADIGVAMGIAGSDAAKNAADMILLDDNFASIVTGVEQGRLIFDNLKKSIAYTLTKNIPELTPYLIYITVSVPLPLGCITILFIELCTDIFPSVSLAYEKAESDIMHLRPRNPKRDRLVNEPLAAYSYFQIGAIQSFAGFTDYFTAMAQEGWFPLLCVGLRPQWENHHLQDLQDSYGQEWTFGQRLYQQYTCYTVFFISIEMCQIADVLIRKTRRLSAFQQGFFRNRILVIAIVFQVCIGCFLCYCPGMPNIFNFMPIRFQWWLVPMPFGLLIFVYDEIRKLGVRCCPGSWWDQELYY
H^+,K^+-ATPase Q127A, sequence (P18434 whole entry partner): as the sequence (P18434 whole entry partner) above

For `Cc1nc2c3c(ccn2c1C)[C@@H](O)[C@H](O)[C@@H](c1ccccc1)N3` [BYK99], the Ki (H^+,K^+-ATPase N138L) was 1300 ± 500 nM, the “-fold increase in K i compared with wild-type” value (“-fold increase in K i” below) (H^+,K^+-ATPase N138L; N138L) was 220 fold and the Ki (H^+,K^+-ATPase D136L) was 5.3 ± 0.5 nM. The “-fold increase in K i” value (H^+,K^+-ATPase D136L; D136L) was 0.9 fold, the Ki (H^+,K^+-ATPase L800F) was 59 ± 5 nM and the “-fold increase in K i” value (H^+,K^+-ATPase L800F; L800F) was 10 fold. For the same compound, the Ki (H^+,K^+-ATPase L796F) was 106 ± 10 nM, the “-fold increase in K i” value (H^+,K^+-ATPase L796F; L796F) was 18 fold and the Ki (H^+,K^+-ATPase A335V) was over 1000 nM. The “-fold increase in K i” value (H^+,K^+-ATPase A335V; A335V) was over 170 fold, the Ki (H^+,K^+-ATPase F332I) was 8.9 ± 0.7 nM and the “-fold increase in K i” value (H^+,K^+-ATPase F332I; F332I) was 1.5 fold. For the same compound, the Ki (H^+,K^+-ATPase Q127A) was 19 ± 1 nM, the “-fold increase in K i” value (H^+,K^+-ATPase Q127A; Q127A) was 3.3 fold and the Ki (H^+,K^+-ATPase L139A) was 14 ± 2 nM. For the same compound, the “-fold increase in K i” value (H^+,K^+-ATPase L139A; L139A) was 2.4 fold, the Ki (H^+,K^+-ATPase D137L) was 220 ± 40 nM and the “-fold increase in K i” value (H^+,K^+-ATPase D137L; D137L) was 38 fold. The Ki (H^+,K^+-ATPase L141I) was 8.4 ± 1.5 nM, the “-fold increase in K i” value (H^+,K^+-ATPase L141I; L141I) was 1.4 fold and the Ki (H^+,K^+-ATPase D137A) was 81 ± 13 nM. The “-fold increase in K i” value (H^+,K^+-ATPase D137A; D137A) was 14 fold, the “fold higher affinity than SCH28080” value (H^+,K^+-ATPase) was “more than 20 fold” and the Ki (H^+,K^+-ATPase N138D) was 7.7 ± 0.7 nM. The “-fold increase in K i” value (H^+,K^+-ATPase N138D; N138D) was 1.3 fold, the Ki (H^+,K^+-ATPase N138I) was 34 ± 8 nM and the “-fold increase in K i” value (H^+,K^+-ATPase N138I; N138I) was 5.9 fold. The “-fold increase in K i” value (H^+,K^+-ATPase WT) was 1.0 fold, the Ki (H^+,K^+-ATPase WT; global fitting, mean ± SEM) was 5.8 ± 0.6 nM and the Ki (H^+,K^+-ATPase V331F) was 15 ± 2 nM. For the same compound, the “-fold increase in K i” value (H^+,K^+-ATPase V331F; V331F) was 2.3 fold, the Ki (H^+,K^+-ATPase A125F) was 12 ± 1 nM and the “-fold increase in K i” value (H^+,K^+-ATPase A125F; A125F) was 2.1 fold. For the same compound, the “-fold increase in K i” value (H^+,K^+-ATPase I126A; I126A) was 19 fold, the Ki (H^+,K^+-ATPase I126A; I126A (M1), high H^+-ATPase activity, K i determined by K m/V max plot) was 110 ± 50 nM and the Ki (H^+,K^+-ATPase M334F) was 16 ± 4 nM. For the same compound, the “-fold increase in K i” value (H^+,K^+-ATPase M334F; M334F) was 2.8 fold, the Ki (H^+,K^+-ATPase Q127F) was 41 ± 7 nM and the “-fold increase in K i” value (H^+,K^+-ATPase Q127F; Q127F) was 7.1 fold. For the same compound, the Ki [1] was 110 ± 10 nM, the “-fold increase in K i” value ([1]; D137N/N138D) was 19 fold and the Ki (H^+,K^+-ATPase Y799F) was 110 ± 10 nM. The “-fold increase in K i” value (H^+,K^+-ATPase Y799F; Y799F) was 19 fold, the Ki (H^+,K^+-ATPase Y140A) was 25 ± 3 nM and the “-fold increase in K i” value (H^+,K^+-ATPase Y140A; Y140A) was 4.3 fold. The Ki (H^+,K^+-ATPase Y140F) was 35 ± 6 nM, the “-fold increase in K i” value (H^+,K^+-ATPase Y140F; Y140F) was 6.0 fold and the Ki (H^+,K^+-ATPase L809F) was 850 ± 130 nM. The “-fold increase in K i” value (H^+,K^+-ATPase L809F; L809F) was 150 fold, the Ki (H^+,K^+-ATPase N138F) was 7700 ± 1200 nM and the “-fold increase in K i” value (H^+,K^+-ATPase N138F; N138F) was 1300 fold.
